Literature values as cited in patent US7671073B2, “Cyclohexylalanine derivatives as dipeptidyl peptidase-IV inhibitors for the treatment or prevention of diabetes” (Merck Sharp & Dohme Corp., priority 2004, dated 2010).

Legend:
DP-IV = target: T1, DP-IV (Homo sapiens, UniProt P27487)
T1 construct: GRF is rapidly degraded in plasma to GRF[3-44]

[1] = rats; Transplantation, 63: 1495-1500 (1997)
[2] = mouse, cyclophosphamide-induced neutropenia; WO 99/56753

T1 sequence (P27487 whole entry): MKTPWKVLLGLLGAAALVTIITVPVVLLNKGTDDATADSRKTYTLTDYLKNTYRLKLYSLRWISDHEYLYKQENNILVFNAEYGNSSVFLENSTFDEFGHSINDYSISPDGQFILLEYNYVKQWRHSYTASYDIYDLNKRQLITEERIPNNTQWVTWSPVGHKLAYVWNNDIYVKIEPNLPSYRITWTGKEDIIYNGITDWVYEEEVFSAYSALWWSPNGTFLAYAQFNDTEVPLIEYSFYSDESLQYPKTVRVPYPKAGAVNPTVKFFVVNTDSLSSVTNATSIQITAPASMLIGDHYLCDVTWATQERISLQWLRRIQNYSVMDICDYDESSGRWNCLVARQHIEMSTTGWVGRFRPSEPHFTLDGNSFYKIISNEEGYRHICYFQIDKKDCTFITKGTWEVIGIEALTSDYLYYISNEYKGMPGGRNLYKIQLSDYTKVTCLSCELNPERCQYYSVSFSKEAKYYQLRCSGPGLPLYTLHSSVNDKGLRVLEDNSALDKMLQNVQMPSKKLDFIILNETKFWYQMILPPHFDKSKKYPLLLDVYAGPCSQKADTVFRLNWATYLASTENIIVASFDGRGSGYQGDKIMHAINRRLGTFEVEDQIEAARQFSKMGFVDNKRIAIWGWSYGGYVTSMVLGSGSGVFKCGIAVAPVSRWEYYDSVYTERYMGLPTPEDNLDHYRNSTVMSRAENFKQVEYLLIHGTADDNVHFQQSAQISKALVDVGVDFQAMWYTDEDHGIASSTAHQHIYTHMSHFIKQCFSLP

Which “degradation of GRF to GRF[3-44] in plasma” value (DP-IV) does the source give for diprotin A here?
Its value is “prevented”.

For `CC(C)N1CCC(c2ccccc2)(c2ccccc2)CC1` [Prodipine, Pro-Pro-diphenyl-phosphonate], which cardiac allograft survival [1] is on record?
The cardiac allograft survival was “double cardiac allograft survival in rats from day 7 to day 14”.

Which hematopoiesis [2] does the source give for `CC(C)[C@H](N)C(=O)N1CCC[C@H]1B(O)O` [Val-Boro-Pro] here?
The hematopoiesis was “stimulated hematopoiesis”.
